In patent US20240246916A1, “7-NITRO-8-HYDROXYQUINOLINE DERIVATIVES, PREPARATION METHOD THEREFORE AND MEDICAL USE THEREOF” (Jiangsu Yahong Meditech Co., Ltd., priority 2021, published 2024):
Values after ≈ are worked out from the molar mass of the structure shown.

Assays:
Assay type in all cases: cell-based
[1] = test system: Escherichia coli (carbapenem-resistant clinical isolate; ATCC25922); assay: MIC by micro broth dilution (CLSI), Escherichia coli; details: for MIC50 / MIC90: ATCC25922, Clinical strain; for MIC50 / MIC90 / MIC: Escherichia coli; for MIC50: read-out: MIC50; for MIC90: read-out: MIC90; for MIC: Standard strain ATCC25922, read-out: MIC
Source text: (§1) The test bacteria were one strain of clinically isolated carbapenem-resistant Escherichia coli, two strains of carbapenem-resistant Acinetobacter baumannii, two strains of methicillin-resistant Staphylococcus aureus, two strains of sensitive Staphylococcus aureus, and 7 strains of Klebsiella pneumoniae. Duplicate strains isolated from the same patient were eliminated. There were also […] quality control strains Escherichia coli ATCC25922, Acinetobacter baumannii ATCC19606, Staphylococcus aureus ATCC29213, Klebsiella pneumoniae ATCC BAA-1705, ATCC 43816, ATCC BAA-2472, ATCC-BAA-1898, ATCC-BAA-1899, NCTC 13440 and ATCC-BAA-2470. There were 24 strains in total.
(§2) According to the recommendations of relevant documents of the American Clinical and Laboratory Standards Institute (CLSI), the micro broth dilution method was used to determine the MIC of the compounds of the present invention against clinically isolated strains. • 3.1 Formulation of antibacterial drug: All the compounds of the present invention were dissolved in DMSO. The drug concentration range was 128 mg/L to 0.06 mg/L. • 3.2 Culture medium: The drug susceptibility test used cation adjusted Mueller-Hinton broth (CAMHB). • 3.3 Amount of inoculum: The test bacteria cultured overnight were adjusted to 0.5 McFarland turbidity by the direct colony suspension method, and diluted 100 folds, the final inoculum amount was 10^5 CFU/mL. • 3.4 Culture conditions: The test bacteria were cultured at 35±2° C. for 20 hours in air.
(§3) The drug susceptibility test results were interpretated by reference to CLSI 2019 M100 29th edition criteria.
(§4) The quality control strains of the drug susceptibility test were Escherichia coli ATCC 25922, Acinetobacter baumannii ATCC 19606, Staphylococcus aureus ATCC 29213, Klebsiella pneumoniae ATCC BAA-1705, ATCC 43816, ATCC BAA-2472, ATCC-BAA-1898, ATCC-BAA-1899, NCTC 13440 and ATCC-BAA-2470.
(§5) The results of drug susceptibility test were statistically analyzed by WHONET software (version 5.6).

[2] = test system: Acinetobacter baumannii (carbapenem-resistant clinical isolates; ATCC19606); assay: MIC by micro broth dilution (CLSI), Acinetobacter baumannii; details: Acinetobacter baumannii; for MIC50 / MIC90: ATCC19606, Clinical strain; for MIC50: read-out: MIC50; for MIC90: read-out: MIC90; for MIC: Standard strain ATCC19606, read-out: MIC
Source text: as §1, §2, §3, §4, §5

[3] = test system: Endothelial cell line HUVEC; assay: Inhibitory activity on cells, CellTiter-Glo viability, HUVEC; details: Homo sapiens, 72 hours treatment
Procedure: (§6) HUVEC (purchased from Allcells Biological Technology (Shanghai) Co., Ltd.); UM-UC-3 (ATCC); LNCaP (ATCC); RM-1 (purchased from Nanjing Cobioer Biosciences Co., Ltd.) (1) On the first day, the cells were seeded in a 96-well plate, and the previous medium was poured off. 5 mL of DPBS was added to wash the cells, and then removed by a pipette and discarded. Then, 1 mL of trypsin (0.25%) was added, and the plate was placed in a cell culture incubator at 37 °C, 5% CO2 for digestion, and taken out after about 2 to 5 minutes. New corresponding medium was added, and pipetted to resuspend the cells evenly, and the cells were then counted with an automated cell counter. Regarding HUVEC, the medium used was endothelial cell complete medium; regarding UM-UC-3, the medium used was 89 v % EMEM+10 v % fetal bovine serum+1 v % penicillin-streptomycin double anti-body; regarding LNcaP, the medium used was 89 v % RPM11640+10 v % fetal bovine serum+1 v % penicillin-streptomycin double anti-body; and regarding RM1, the medium used was 89 v % DMEM+10 v % fetal bovine serum+1 v % penicillin-streptomycin double anti-body. (2) HUVEC cells were seeded in columns 1 to 11 of a 96-well plate (Corning, Cat. No. 3610) at a density of 2000 cells per well in 100 μL of medium, and the medium free of cell was added to the wells of column 12. The other three types of cells were also seeded, wherein UM-UC-3 and RM-1 cells were seeded at a density of 3000 cells per well, and LNCap cells were seeded at a density of 5000 cells per well. Then, the plate was placed in an incubator at 37° C., 5% CO2 for 24 hours. (3) On the second day, the compounds of the present invention and the reference drug nitroxoline (obtained according to the preparation method disclosed in the prior art) were diluted in gradient (2.5 folds, started at 100 μmol) to obtain 8 dose points (there were a total of 8 columns of wells; the first column of wells had the highest concentration, the concentration decreased in turn, and the last column of wells had the lowest concentration). 10 μL of the compound diluted in gradient was added to the 100 μL of cells in column 1 to column 10 with an 8-channel pipette. 10 μL of the corresponding medium containing 0.33 v % DMSO was added to column 11 and column 12. The plate was incubated in an incubator at 37° C., 5% CO2 for 72 hours (note: column 11 was used as MAX well with cells and no compounds; and column 12 was used as MIN well with no cells and no compounds). (4) After treating with the compounds of the present invention for 72 hours, the cell viability detection reagents in the above CellTiter-Glo® assay kit were added to the 96-well plate at 50 μL per well according to the instructions. The plate was shaken on a shaker in the dark for 5 to 10 minutes, and then the cell activity was determined by a multifunctional microplate reader. Finally, the growth inhibition of the compounds of the present invention on the cells was plotted by XLFIT 5.3 software, and the IC50 values of the compounds of the present invention were calculated.

[4] = test system: Staphylococcus aureus (methicillin-resistant and sensitive clinical isolates; ATCC29213); assay: MIC by micro broth dilution (CLSI), Staphylococcus aureus; details: for MIC50 / MIC90: Clinical strain; for MIC50: read-out: MIC50; for MIC90: read-out: MIC90; for MIC: Standard strain ATCC29213, read-out: MIC
Source text: as §1, §2, §3, §4, §5

[5] = test system: Prostate cancer cell line LNcaP; assay: Inhibitory activity on cancer cells, CellTiter-Glo viability, LNcaP; details: Homo sapiens, 72 hours treatment
Procedure: as §6

[6] = test system: Bladder cancer cell line UM-UC-3; assay: Inhibitory activity on cancer cells, CellTiter-Glo viability, UM-UC-3; details: Homo sapiens, UMUC3, 72 hours treatment
Procedure: as §6

Row | Compound | MIC50 [1] [µg/mL] | MIC90 [1] [µg/mL] | MIC [1] [µg/mL] | inhibitory effect against Escherichia coli compared with the reference drug nitroxoline ([1]; MIC comparison) | MIC50 [2] [µg/mL] | MIC90 [2] [µg/mL] | MIC [2] [µg/mL] | IC50 [3] [µM] | MIC50 [4] [µg/mL] | MIC90 [4] [µg/mL] | MIC [4] [µg/mL] | IC50 [5] [µM] | IC50 [6] [µM]
1 | O=[N+]([O-])c1ccc2c(Cl)ccnc2c1O [Example 12, 4-Chloro-7-nitroquinolin-8-ol] | 4 (≈ 17.8 µM) | 4 (≈ 17.8 µM) | 4 (≈ 17.8 µM) | comparable to that of the reference drug nitroxoline | 2 (≈ 8.9 µM) | 4 (≈ 17.8 µM) | 4 (≈ 17.8 µM) | 7.5 | 2 (≈ 8.9 µM) | 2 (≈ 8.9 µM) | 2 (≈ 8.9 µM) | 4.1 | 7.5
2 | O=[N+]([O-])c1ccc2c(N3CCCC3)ccnc2c1O [Example 13, 7-Nitro-4-(pyrrolidin-1-yl)quinolin-8-ol] | > 128 | > 128 | > 128 |  | > 128 | > 128 | > 128 | > 50 | > 128 | > 128 | > 128 | 35.4 | 38
3 | O=[N+]([O-])c1ccc2c(N3CCOCC3)ccnc2c1O [Example 14, 4-Morpholino-7-nitroquinolin-8-ol] | 128 (≈ 465 µM) | 128 (≈ 465 µM) | > 128 |  | 128 (≈ 465 µM) | > 128 | > 128 | 10.9 | 128 (≈ 465 µM) | 128 (≈ 465 µM) | 128 (≈ 465 µM) | 8.7 | 6.1
4 | O=[N+]([O-])c1ccc2c(-n3ccnc3)ccnc2c1O [Example 15, 4-(1H-Imidazol-1-yl)-7-nitroquinolin-8-ol] | 128 (≈ 500 µM) | 128 (≈ 500 µM) | > 128 |  | > 128 | > 128 | > 128 | 32.3 | 64 (≈ 250 µM) | 128 (≈ 500 µM) | 128 (≈ 500 µM) | 35.2 | 36.2
5 | O=[N+]([O-])c1ccc2c(Br)ccnc2c1O [Example 16, 4-Bromo-7-nitroquinolin-8-ol] | 16 (≈ 59.5 µM) | 16 (≈ 59.5 µM) | 32 (≈ 119 µM) |  | 8 (≈ 29.7 µM) | 8 (≈ 29.7 µM) | 32 (≈ 119 µM) | 8.1 | 8 (≈ 29.7 µM) | 8 (≈ 29.7 µM) | 8 (≈ 29.7 µM) | 3.9 | 8.9
6 | O=[N+]([O-])c1ccc2c(NC3COC3)ccnc2c1O [Example 19, 7-Nitro-4-(3-oxetanylamino)quinolin-8-ol] |  |  |  |  |  |  |  | > 100 |  |  |  | > 100 | > 100
